Results taken from US20200216496A1, “Antibacterial Compounds Produced by the Microorganism Strain Corallococcus Coralloides ST201330 (DSM 24989)” (Sanofi, priority 2017, published 2020).
*1 amine or outer side, *2 acyl side, *3 side chain or, on linkers, in order; H or OH if unused. Where a SMILES comes first, the peptide text is derived from it. [ ]: non-standard residue; d: D form. The star is where a group is joined. ξ: configuration not given here. X2 = Cn1cncc1C(O)C(N[*:1])C(=O)[*:2]; X3 = COC(CN[*:1])C(O)C(O)C(=O)[*:2]; ξVal(3-OH) = CC(C)(O)C(N)C(=O)O; NMeF = CN[CH](Cc1ccccc1)C(=O)O; X4 = O=C(C(O)N[*:1])[*:2]; X1 = CC(O)C(O)C(=O)*

Tests used:
E. coli strain ATCC35218 = format: cell-based, Escherichia coli
Method: The present in vitro test identifies molecules having antimicrobial activity on the microorganisms by quantification of the culture optical density. Optical density compared to a vial with the same medium non inoculated by bacteria is an indicator of the bacterial growth. Minimal inhibitory concentrations were evaluated following the CLSI and EUCAST guidelines. Bacterial inoculum were prepared by overnight culture in cation-adjusted Mueller-Hinton II (MHII) medium from colonies isolated from colonies on agar plates, then diluted to evaluate the colony forming units (cfu) using the McFarland turbidity standard. A 96 well plate was inoculated with 100 μl of 5.105 cfu/ml in MHII, and test compounds prepared by serial dilution at 100× concentration in DMSO. After a 20-22 h incubation, optical density was evaluated on a microplate reader and the MIC endpoint was determined as the lowest concentration of antibiotic at which there is no visible growth in duplicates, meaning that optical density differs no more from negative controls than 10% of the difference in optical density between negative controls (medium, no bacteria) and positive control (bacteria in medium, no antibiotics).

[1] = test system: Escherichia coli ATCC 35218; test: Antibacterial activity against Escherichia coli: inhibitory activity (IC80), broth microdilution, absorbance at 590 nm; format: cell-based; details: Mueller Hinton broth, 37° C., 20 hours, growth inhibited by 80%
Method: A stock solution of 1000 μg/ml of the test compound was prepared in methanol. The test strain (Escherichia coli ATCC 35218) was stored at −80° C. The inoculum was prepared from a fresh liquid preculture. The preculture was prepared from a bead of the material stored at −80° C. and 30 ml of nutrient medium (Mueller Hinton broth, Difco) and incubated at 37° C. and 180 rpm for 18 hours. The inoculum was adjusted to an optical density (OD) of 0.2 at a wavelength of 600 nm. For this, the inoculum was adjusted to a value of 10^8 CFU/ml (CFU: colony forming units). After the adjustment of the inoculum, the suspension was diluted with nutrient solution (Mueller Hinton broth, Difco) in a ratio of 1:10000. The microtiter plate was inoculated within 15 min of preparation of the inoculum. The exact colony count was determined by means of surface culture. Using the stock solution of the test compound and the nutrient medium (Mueller Hinton broth, Difco), a dilution series was prepared beforehand on the microtiter plate. […] The microtiter plates were read with the aid of a photometer at a wavelength of 590 nm by measurement of the absorption. IC80 values were subsequently calculated from the values of the dilution series according to a standard process as the concentration of the test compound which is necessary in order to inhibit the growth of the test organism Escherichia coli by 80%.

Absorbance MIC (E. coli strain ATCC35218) [µg/mL]	SMILES	IC80 for inhibition of Escherichia coli ATCC 35218 [1] [µg/mL]
1 to 4	COC(CNC(=O)C(NC(=O)C(O)C(C)O)C(O)c1cncn1C)C(O)C(O)C(=O)N(C)C(Cc1ccccc1)C(=O)NCC(=O)NC(C(=O)NC(CO)C(=O)NC(C(=O)NC(CC(C)C)C(=O)NC(CO)C(=O)O)C(C)(C)O)C(C)(C)O (stereo not drawn) [formula Ia] (X1-[X2][X3][NMeF]G[ξVal(3-OH)]S[ξVal(3-OH)]LS-OH; configuration not given here)	
8	COC(CNC(=O)C(NC(=O)C(O)C(C)O)C(O)c1cncn1C)C(O)C(O)C(=O)N(C)C(Cc1ccccc1)C(=O)NC(O)C(=O)NC(C(=O)NC(CO)C(=O)NC(C(=O)NC(CC(C)C)C(=O)NC(CO)C(=O)O)C(C)(C)O)C(C)(C)O (stereo not drawn) [formula Ib] (X1-[X2][X3][NMeF][X4][ξVal(3-OH)]S[ξVal(3-OH)]LS-OH; configuration not given here)	0.71
